According to patent US8486962B2, “Antifungal agents” (F2G Ltd., priority 2005, dated 2013):
Converted amounts (≈) assume the structure as drawn.

Columns and labels:
Candida parapsilosis = experiment: MIC, RPMI medium, Candida parapsilosis; format: cell-based; details: Lodderomyces parapsilosis, read-out: MIC C. parapsilosis
Method: (§1) Measurement of Minimum Inhibitory Concentrations (MICs)
(§2) Between 1 and 5 mgs of compound were accurately weighed out into a sterile Eppendorf tube. The compound was dissolved in DMSO to give a solution containing 5 mg/ml. Tubes were stored at −20° C. until required.
(§3) On the day of testing thawed solutions were vortex mixed to ensure homogeneity. 30 μl of solution was removed and added to 570 μl of sterile water in a separate sterile Eppendorf. The thoroughly mixed solution was used to prepare a series of doubling dilutions in water, in a deep well plate. Eleven replicate plates were prepared using a Minitrak by aspirating 20 μl from each well into eleven clear polystyrene 96 well plates.
(§4) Spores of Aspergillus spp (Aspergillus fumigatus, Aspergillus terreus, Aspergillus niger and Aspergillus flavus) were harvested from cultures grown on Sabarauds agar for 5 days, and resuspended in PBS/Tween 80 to approx 1×10^7 cfu/ml Other filamentous fungi (Fusarium solani, Scedosporium spp., Trichophyton spp., Absidia corymbifera), were grown on Sabarauds agar for 2-10 days and spores/hyphae resuspended in PBS/Tween to give approx 1×10^7 cfU/ml. Candida species (Candida albicans, Candida glabrata, Candida krusei, Candida parapsilosis and Candida tropicalis) were grown on Sabarauds agar, cells were harvested from the agar using a sterile loop and resuspended in PBS/Tween 80 to approx 1×10^6 cfu/ml. Each organism suspension was diluted in RPMI medium, containing 2% glucose and 0.135M MOPS buffer (pH7.0) to 2×10^4 cfu/ml for Aspergillus spp and other filamentous fungi and 2×10^3 cfu/ml for yeast. 80 μl of an organism suspension was added to each well of the plate containing drug dilutions.
(§5) This produced MIC plates with a drug range 50-0.05 mg/L and organism inocula of 1-2×10^4 cfu/ml for Aspergillus spp and other filamentous fungi and 1-2×10^3 cfu/ml for yeasts. All plates were incubated for 24-48 hrs at 35° C. Growth was assessed by monitoring the optical density at 485 nm for each well. The MIC of a compound is the lowest drug concentration that inhibits growth of an organism by >80% compared with a drug free control. MICs are recorded as mg/L. Other growth media can be used for susceptibility testing, and the activity of the described compounds can also be assessed in a medium comprising, 1% glucose, 1% ammonium chloride and 0.5% yeast extract (YAG medium). To perform MIC tests in this medium, dilutions of compounds are prepared in microtitre plates as described above. Fungal strains to be tested are grown and harvested in an identical manner to that described above, each organism suspension is then diluted in YAG medium to 2×10^4 cfu/ml for Aspergillus spp and other filamentous fungi and 2×10^3 cfu/ml for yeast. 80 μl of an organism suspension was added to each well of the plate containing drug dilutions. This produced MIC plates with a drug range 50-0.05 mg/L and organism inocula of 1-2×10^4 cfu/ml for Aspergillus spp and other filamentous fungi and 1-2×10^3 cfu/ml for yeasts. All plates were incubated for 24 hrs at 35° C. Growth was assessed by monitoring the optical density at 485 nm for each well. The MIC of a compound is the lowest drug concentration that inhibits growth of an organism by >70% compared with a drug free control. MICs are recorded as mg/L. In cases where the MIC of an organism is […]0.05 mg/L the MIC is repeated using a concentration range of 0.5-0.0005 mg/L. MIC tests in YAG medium have more clear-cut endpoints and have slightly lower MICS than those performed in RPMI medium.
(§6) The following organisms were tested: Aspergillus fumigatus AF293 and Aspergillus fumigatus AF210, Aspergillus niger, Aspergillus terreus, Aspergillus favus, Candida albicans, Candida krusei, Candida tropicalis, Candida glabrata, Candida parapsilosis, Trichophyton rubrum, Trichophyton mentagrophytes, Scedosporium prolificans, Scedosporium apiospermum, Absidia corymbifera, Fusarium solani.

Aspergillus terreus = experiment: MIC, YAG medium, Aspergillus terreus; format: cell-based; details: Aspergillus terreus; YAG medium; read-out: MIC A Terreus 4
In short: (§7)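 OD at 485 nm versus drug-free control defines MIC (mg/L): >80% inhibition for Candida albicans in RPMI/2% glucose/MOPS pH7.0 after 24-48 hrs at 35° C, >70% for Aspergillus strains in YAG medium after 24 hrs at 35° C. Spore inocula 1-2×10^4 cfu/ml; yeast 1-2×10^3 cfu/ml.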

[1] = tested on: Aspergillus fumigatus AF210; experiment: MIC, YAG medium, Aspergillus fumigatus AF210; format: cell-based; details: Aspergillus fumigatus, AF210; YAG medium; read-out: MIC A Fum. 210
In short: as §7

Aspergillus niger = experiment: MIC, YAG medium, Aspergillus niger; format: cell-based; details: Aspergillus niger; YAG medium; read-out: MIC A Niger 1
In short: as §7

Candida glabrata = experiment: MIC, RPMI medium, Candida glabrata; format: cell-based; details: Nakaseomyces glabratus, read-out: MIC C. glabrata
Method: as §1, §2, §3, §4, §5, §6

Candida albicans = experiment: MIC, RPMI medium, Candida albicans; format: cell-based; details: read-out: MIC C. albicans
Method: as §1, §2, §3, §4, §5, §6

[2] = tested on: Aspergillus fumigatus AF293; experiment: MIC, YAG medium, Aspergillus fumigatus AF293; format: cell-based; details: Aspergillus fumigatus, AF293; YAG medium; read-out: MIC A Fum. 293
In short: as §7

A Terreus 49 = experiment: MIC, YAG medium, A Terreus 49; format: cell-based, Aspergillus terreus; details: Aspergillus terreus; YAG medium; read-out: MIC A Terreus 49
In short: as §7

Candida krusei = experiment: MIC, RPMI medium, Candida krusei; format: cell-based; details: Pichia kudriavzevii, read-out: MIC C. krusei
Method: as §1, §2, §3, §4, §5, §6

Candida tropicalis = experiment: MIC, RPMI medium, Candida tropicalis; format: cell-based; details: read-out: MIC C. tropicalis
Method: as §1, §2, §3, §4, §5, §6

Aspergillus flavus = experiment: MIC, YAG medium, Aspergillus flavus; format: cell-based; details: Aspergillus flavus; YAG medium; read-out: MIC A Flavus 01
In short: as §7

`O=C1CCN(c2ccc(NC(=O)C(=O)c3c(-c4ccccc4)cc4ccccn34)cc2)CC1` [Example 272, 2-Oxo-N-[4-(4-oxo-piperidin-1-yl)-phenyl]-2-(2-phenyl-indolizin-3-yl)-acetamide] showed an MIC (Candida parapsilosis) of 25 µg/mL (≈ 57.1 µM), an MIC (Aspergillus terreus) of 0.12 µg/mL (≈ 0.274 µM) and an MIC [1] of 0.5 µg/mL (≈ 1.14 µM). The MIC (Aspergillus niger) was 0.5 µg/mL (≈ 1.14 µM), the MIC (Candida glabrata) was 50 µg/mL (≈ 114 µM) and the MIC (Candida albicans) was 1.6 µg/mL (≈ 3.66 µM). For the same compound, the MIC [2] was 0.25 µg/mL (≈ 0.571 µM), the MIC (A Terreus 49) was 0.12 µg/mL (≈ 0.274 µM) and the MIC (Candida krusei) was 50 µg/mL (≈ 114 µM). The MIC (Candida tropicalis) was 6.25 µg/mL (≈ 14.3 µM) and the MIC (Aspergillus flavus) was 0.062 µg/mL (≈ 0.142 µM).
For `O=C(Nc1ccc(-c2nnn[nH]2)cc1)C(=O)c1c(-c2ccccc2)cc2ccccn12` [Example 271, 2-Oxo-2-(2-phenyl-indolizin-3-yl)-N-[4-(1H-tetrazol-5-yl)-phenyl]-acetamide], the MIC (Candida parapsilosis) was 50 µg/mL (≈ 122 µM), the MIC (Aspergillus terreus) was 25 µg/mL (≈ 61.2 µM) and the MIC [1] was 50 µg/mL (≈ 122 µM). It also gave an MIC (Aspergillus niger) of 50 µg/mL (≈ 122 µM), an MIC (Candida glabrata) of 50 µg/mL (≈ 122 µM) and an MIC (Candida albicans) of 3.1 µg/mL (≈ 7.59 µM). The MIC [2] was 50 µg/mL (≈ 122 µM), the MIC (A Terreus 49) was 25 µg/mL (≈ 61.2 µM) and the MIC (Candida krusei) was 50 µg/mL (≈ 122 µM). The MIC (Candida tropicalis) was 25 µg/mL (≈ 61.2 µM) and the MIC (Aspergillus flavus) was 50 µg/mL (≈ 122 µM).
